Results from PMC12155096 (International Journal of Molecular Sciences, 2025).

The compounds below were run against T1, human CYP1A2 (Homo sapiens, UniProt P05177).
T1 sequence (P05177 1-516): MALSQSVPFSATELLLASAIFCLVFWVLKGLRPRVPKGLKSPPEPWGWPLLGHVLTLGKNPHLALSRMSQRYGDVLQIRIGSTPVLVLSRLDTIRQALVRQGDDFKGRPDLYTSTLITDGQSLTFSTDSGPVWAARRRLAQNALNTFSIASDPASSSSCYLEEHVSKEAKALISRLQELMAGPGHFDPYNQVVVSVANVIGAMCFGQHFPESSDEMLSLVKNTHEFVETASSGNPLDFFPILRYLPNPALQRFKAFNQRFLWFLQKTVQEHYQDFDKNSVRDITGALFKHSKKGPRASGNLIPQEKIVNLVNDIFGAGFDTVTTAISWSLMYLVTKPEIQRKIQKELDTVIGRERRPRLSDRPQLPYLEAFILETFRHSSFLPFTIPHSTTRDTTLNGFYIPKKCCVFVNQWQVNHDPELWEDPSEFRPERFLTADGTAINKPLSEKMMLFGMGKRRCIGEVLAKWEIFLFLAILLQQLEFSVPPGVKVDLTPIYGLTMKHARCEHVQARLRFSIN
`CC(=O)O[C@H]1CC[C@@]2(C)C(=CC[C@@H]3[C@@H]2CC[C@]2(C)C(C(C)=O)=CC[C@@H]32)C1` [Dehydropregnenolone acetate] was tested, and the “CYP1A2 AC50 (half-maximal activity concentration)” value (from here on “CYP1A2 AC50”) was “Inactive”.
`COC(=O)CCCCCCCC(=O)OC` [Dimethyl nonanedioate] showed an AC50 of 40.1 µM.
`O=C(Oc1ccccc1)c1cccc(C(=O)Oc2ccccc2)c1` [Diphenyl isophthalate] showed an AC50 of 36.1 µM.
`CC(=O)O[C@@H]1C[C@H]2[C@@H]3CCc4cc(OC(=O)c5ccccc5)ccc4[C@H]3CC[C@]2(C)[C@H]1OC(C)=O` [Estriol benzoate diacetate] was tested, and the “CYP1A2 AC50” value was “Inactive”.
`CCC(=O)Oc1ccc2c(c1)CC[C@@H]1[C@@H]2CC[C@@]2(C)[C@H]1C[C@@H](OC(=O)CC)[C@@H]2OC(=O)CC` [Estriol tripropionate] was tested, and the “CYP1A2 AC50” value was “Inconclusive inhibitor”.
Work on `CCOC(=O)C(C#N)=C(c1ccccc1)c1ccccc1` [Ethyl 2-cyano-3,3-diphenylacrylate] yielded an AC50 of 1.87 µM.
Compound `CCOC(=O)c1ccc(O)c(O)c1` [Ethyl protocatechuate] has an AC50 of 27.2 µM.
For `C[C@]12CC[C@H]3[C@@H](CCC4=CC(=O)CC[C@@]43C)[C@@H]1CC[C@@H]2C(=O)O` [Etienic acid], the “CYP1A2 AC50” value was “Inactive”.
For `CN1CCC(Nc2ncc3ncnc(Nc4ccc(F)c(Cl)c4)c3n2)CC1.Cl.Cl` [Falnidamol dihydrochloride], the “CYP1A2 AC50” value was “Inactive”.
With `O=C(NCc1ncc(C(F)(F)F)cc1Cl)c1c(Cl)cccc1Cl` [Fluopicolide] the AC50 was 33 µM.
In the case of `C/C=C1/C(=O)C[C@H]2[C@@H]3CCC4=CC(=O)CC[C@]4(C)[C@H]3CC[C@]12C` [Guggulsterone E], the “CYP1A2 AC50” value is reported as “Inconclusive inhibitor”.
With `C/C=C1\C(=O)C[C@H]2[C@@H]3CCC4=CC(=O)CC[C@]4(C)[C@H]3CC[C@]12C` [Guggulsterone Z] the “CYP1A2 AC50” value was “Inactive”.
With `O=C(OCCCCCCOC(=O)c1ccccc1)c1ccccc1` [Hexane-1,6-diyl dibenzoate] the AC50 was 3.43 µM.
With `Cl.Nc1c2c(nc3c1CCC3)CCCC2.O` [Ipidacrine hydrochloride hydrate] the “CYP1A2 AC50” value was “Inconclusive inhibitor”.
Work on `CC(C)COC(=O)C=Cc1ccccc1` [Isobutyl 3-phenylacrylate] yielded an AC50 of 17 µM.

Each compound was assayed against human CYP2C9 (Homo sapiens, UniProt P11712).
Sequence of human CYP2C9 (P11712 whole entry): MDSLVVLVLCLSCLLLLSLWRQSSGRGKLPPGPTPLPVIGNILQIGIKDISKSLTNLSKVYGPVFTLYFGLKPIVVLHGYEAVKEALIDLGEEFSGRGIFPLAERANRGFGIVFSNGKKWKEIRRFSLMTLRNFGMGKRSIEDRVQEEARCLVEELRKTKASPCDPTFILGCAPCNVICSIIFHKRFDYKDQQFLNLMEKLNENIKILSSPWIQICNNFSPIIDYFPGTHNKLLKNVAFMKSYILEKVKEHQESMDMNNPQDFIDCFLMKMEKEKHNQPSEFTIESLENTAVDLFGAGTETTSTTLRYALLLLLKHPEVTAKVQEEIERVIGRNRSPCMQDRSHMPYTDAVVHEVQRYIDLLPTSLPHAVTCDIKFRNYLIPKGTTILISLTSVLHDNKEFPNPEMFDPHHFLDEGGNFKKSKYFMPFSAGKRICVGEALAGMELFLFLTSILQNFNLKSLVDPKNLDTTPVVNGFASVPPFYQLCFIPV
For `CC(=O)O[C@H]1CC[C@@]2(C)C(=CC[C@@H]3[C@@H]2CC[C@]2(C)C(C(C)=O)=CC[C@@H]32)C1` [Dehydropregnenolone acetate], the “CYP2C9 AC50 (half-maximal activity concentration)” value (“CYP2C9 AC50” for short) was “Inactive”.
With `COC(=O)CCCCCCCC(=O)OC` [Dimethyl nonanedioate] the “CYP2C9 AC50” value was “Inconclusive inhibitor”.
For `O=C(Oc1ccccc1)c1cccc(C(=O)Oc2ccccc2)c1` [Diphenyl isophthalate], the AC50 was 9.46 µM.
In the case of `CC(=O)O[C@@H]1C[C@H]2[C@@H]3CCc4cc(OC(=O)c5ccccc5)ccc4[C@H]3CC[C@]2(C)[C@H]1OC(C)=O` [Estriol benzoate diacetate], the AC50 is reported as 22.8 µM.
In the case of `CCC(=O)Oc1ccc2c(c1)CC[C@@H]1[C@@H]2CC[C@@]2(C)[C@H]1C[C@@H](OC(=O)CC)[C@@H]2OC(=O)CC` [Estriol tripropionate], the AC50 is reported as 19.8 µM.
`CCOC(=O)C(C#N)=C(c1ccccc1)c1ccccc1` [Ethyl 2-cyano-3,3-diphenylacrylate] was tested, and the AC50 was 3.75 µM.
In the case of `CCOC(=O)c1ccc(O)c(O)c1` [Ethyl protocatechuate], the AC50 is reported as 32.2 µM.
`C[C@]12CC[C@H]3[C@@H](CCC4=CC(=O)CC[C@@]43C)[C@@H]1CC[C@@H]2C(=O)O` [Etienic acid] gave an AC50 of 21.2 µM.
With `CN1CCC(Nc2ncc3ncnc(Nc4ccc(F)c(Cl)c4)c3n2)CC1.Cl.Cl` [Falnidamol dihydrochloride] the “CYP2C9 AC50” value was “Inactive”.
Compound `O=C(NCc1ncc(C(F)(F)F)cc1Cl)c1c(Cl)cccc1Cl` [Fluopicolide] has an AC50 of 4.13 µM.
Work on `C/C=C1/C(=O)C[C@H]2[C@@H]3CCC4=CC(=O)CC[C@]4(C)[C@H]3CC[C@]12C` [Guggulsterone E] yielded an AC50 of 19.6 µM.
`C/C=C1\C(=O)C[C@H]2[C@@H]3CCC4=CC(=O)CC[C@]4(C)[C@H]3CC[C@]12C` [Guggulsterone Z] was tested, and the AC50 was 24.8 µM.
`O=C(OCCCCCCOC(=O)c1ccccc1)c1ccccc1` [Hexane-1,6-diyl dibenzoate] was tested, and the AC50 was 10.6 µM.
For `Cl.Nc1c2c(nc3c1CCC3)CCCC2.O` [Ipidacrine hydrochloride hydrate], the “CYP2C9 AC50” value was “Inactive”.
Work on `CC(C)COC(=O)C=Cc1ccccc1` [Isobutyl 3-phenylacrylate] yielded an AC50 of 44 µM.

What follows are compounds tested against human CYP2C19 (Homo sapiens, UniProt P33261).
Sequence of human CYP2C19 (P33261 whole entry): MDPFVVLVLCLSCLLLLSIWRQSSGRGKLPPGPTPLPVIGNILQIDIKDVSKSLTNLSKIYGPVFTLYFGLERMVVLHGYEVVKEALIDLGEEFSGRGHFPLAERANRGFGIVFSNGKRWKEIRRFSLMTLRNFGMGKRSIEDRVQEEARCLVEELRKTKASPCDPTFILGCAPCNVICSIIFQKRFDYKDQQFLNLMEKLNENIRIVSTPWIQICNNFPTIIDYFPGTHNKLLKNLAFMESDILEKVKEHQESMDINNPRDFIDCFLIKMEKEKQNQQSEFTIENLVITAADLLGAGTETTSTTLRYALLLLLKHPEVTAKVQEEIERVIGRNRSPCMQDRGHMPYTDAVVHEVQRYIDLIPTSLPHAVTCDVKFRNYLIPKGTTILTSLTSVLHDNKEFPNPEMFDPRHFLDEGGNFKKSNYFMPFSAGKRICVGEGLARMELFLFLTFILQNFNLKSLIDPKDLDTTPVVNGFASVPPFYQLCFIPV
For `CC(=O)O[C@H]1CC[C@@]2(C)C(=CC[C@@H]3[C@@H]2CC[C@]2(C)C(C(C)=O)=CC[C@@H]32)C1` [Dehydropregnenolone acetate], the “CYP2C19 AC50 (half-maximal activity concentration)” value (“CYP2C19 AC50” for short) was “Inactive”.
With `COC(=O)CCCCCCCC(=O)OC` [Dimethyl nonanedioate] the “CYP2C19 AC50” value was “Inconclusive inhibitor”.
Compound `O=C(Oc1ccccc1)c1cccc(C(=O)Oc2ccccc2)c1` [Diphenyl isophthalate] has an AC50 of 9.89 µM.
For `CC(=O)O[C@@H]1C[C@H]2[C@@H]3CCc4cc(OC(=O)c5ccccc5)ccc4[C@H]3CC[C@]2(C)[C@H]1OC(C)=O` [Estriol benzoate diacetate], the “CYP2C19 AC50” value was “Inactive”.
In the case of `CCC(=O)Oc1ccc2c(c1)CC[C@@H]1[C@@H]2CC[C@@]2(C)[C@H]1C[C@@H](OC(=O)CC)[C@@H]2OC(=O)CC` [Estriol tripropionate], the AC50 is reported as 29.9 µM.
Compound `CCOC(=O)C(C#N)=C(c1ccccc1)c1ccccc1` [Ethyl 2-cyano-3,3-diphenylacrylate] has an AC50 of 4.01 µM.
With `CCOC(=O)c1ccc(O)c(O)c1` [Ethyl protocatechuate] the “CYP2C19 AC50” value was “Inactive”.
In the case of `C[C@]12CC[C@H]3[C@@H](CCC4=CC(=O)CC[C@@]43C)[C@@H]1CC[C@@H]2C(=O)O` [Etienic acid], the “CYP2C19 AC50” value is reported as “Inactive”.
With `CN1CCC(Nc2ncc3ncnc(Nc4ccc(F)c(Cl)c4)c3n2)CC1.Cl.Cl` [Falnidamol dihydrochloride] the “CYP2C19 AC50” value was “Inactive”.
Compound `O=C(NCc1ncc(C(F)(F)F)cc1Cl)c1c(Cl)cccc1Cl` [Fluopicolide] has an AC50 of 18.6 µM.
Compound `C/C=C1/C(=O)C[C@H]2[C@@H]3CCC4=CC(=O)CC[C@]4(C)[C@H]3CC[C@]12C` [Guggulsterone E] has an AC50 of 4.67 µM.
Work on `C/C=C1\C(=O)C[C@H]2[C@@H]3CCC4=CC(=O)CC[C@]4(C)[C@H]3CC[C@]12C` [Guggulsterone Z] yielded an AC50 of 6.83 µM.
`O=C(OCCCCCCOC(=O)c1ccccc1)c1ccccc1` [Hexane-1,6-diyl dibenzoate] was tested, and the AC50 was 83.2 µM.
`Cl.Nc1c2c(nc3c1CCC3)CCCC2.O` [Ipidacrine hydrochloride hydrate] was tested, and the “CYP2C19 AC50” value was “Inactive”.
In the case of `CC(C)COC(=O)C=Cc1ccccc1` [Isobutyl 3-phenylacrylate], the AC50 is reported as 80 µM.

What follows are compounds tested against human CYP2D6 (Homo sapiens, UniProt P10635).
Sequence of human CYP2D6 (P10635 whole entry): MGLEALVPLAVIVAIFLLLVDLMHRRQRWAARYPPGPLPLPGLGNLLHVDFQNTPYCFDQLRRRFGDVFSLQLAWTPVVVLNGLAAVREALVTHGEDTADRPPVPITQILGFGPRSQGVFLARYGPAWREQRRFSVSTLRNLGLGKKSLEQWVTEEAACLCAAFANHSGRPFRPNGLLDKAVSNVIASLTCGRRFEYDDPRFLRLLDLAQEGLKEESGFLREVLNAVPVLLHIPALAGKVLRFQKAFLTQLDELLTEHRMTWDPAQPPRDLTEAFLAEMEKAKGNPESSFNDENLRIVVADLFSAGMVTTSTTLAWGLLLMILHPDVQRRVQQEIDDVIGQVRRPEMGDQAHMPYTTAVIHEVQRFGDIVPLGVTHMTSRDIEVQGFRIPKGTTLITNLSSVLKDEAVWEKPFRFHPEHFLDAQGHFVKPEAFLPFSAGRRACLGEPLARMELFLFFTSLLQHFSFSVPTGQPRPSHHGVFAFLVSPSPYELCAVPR
`CC(=O)O[C@H]1CC[C@@]2(C)C(=CC[C@@H]3[C@@H]2CC[C@]2(C)C(C(C)=O)=CC[C@@H]32)C1` [Dehydropregnenolone acetate] was tested, and the “CYP2D6 AC50 (half-maximal activity concentration)” value (“CYP2D6 AC50” for short) was “Inactive”.
In the case of `COC(=O)CCCCCCCC(=O)OC` [Dimethyl nonanedioate], the “CYP2D6 AC50” value is reported as “Inconclusive inhibitor”.
Compound `O=C(Oc1ccccc1)c1cccc(C(=O)Oc2ccccc2)c1` [Diphenyl isophthalate] has an AC50 of 36.5 µM.
With `CC(=O)O[C@@H]1C[C@H]2[C@@H]3CCc4cc(OC(=O)c5ccccc5)ccc4[C@H]3CC[C@]2(C)[C@H]1OC(C)=O` [Estriol benzoate diacetate] the “CYP2D6 AC50” value was “Inactive”.
In the case of `CCC(=O)Oc1ccc2c(c1)CC[C@@H]1[C@@H]2CC[C@@]2(C)[C@H]1C[C@@H](OC(=O)CC)[C@@H]2OC(=O)CC` [Estriol tripropionate], the “CYP2D6 AC50” value is reported as “Inconclusive inhibitor”.
For `CCOC(=O)C(C#N)=C(c1ccccc1)c1ccccc1` [Ethyl 2-cyano-3,3-diphenylacrylate], the “CYP2D6 AC50” value was “Inconclusive inhibitor”.
For `CCOC(=O)c1ccc(O)c(O)c1` [Ethyl protocatechuate], the “CYP2D6 AC50” value was “Inactive”.
`C[C@]12CC[C@H]3[C@@H](CCC4=CC(=O)CC[C@@]43C)[C@@H]1CC[C@@H]2C(=O)O` [Etienic acid] was tested, and the “CYP2D6 AC50” value was “Inactive”.
With `CN1CCC(Nc2ncc3ncnc(Nc4ccc(F)c(Cl)c4)c3n2)CC1.Cl.Cl` [Falnidamol dihydrochloride] the AC50 was 18.4 µM.
In the case of `O=C(NCc1ncc(C(F)(F)F)cc1Cl)c1c(Cl)cccc1Cl` [Fluopicolide], the AC50 is reported as 6.57 µM.
With `C/C=C1/C(=O)C[C@H]2[C@@H]3CCC4=CC(=O)CC[C@]4(C)[C@H]3CC[C@]12C` [Guggulsterone E] the “CYP2D6 AC50” value was “Inactive”.
With `C/C=C1\C(=O)C[C@H]2[C@@H]3CCC4=CC(=O)CC[C@]4(C)[C@H]3CC[C@]12C` [Guggulsterone Z] the “CYP2D6 AC50” value was “Inactive”.
For `O=C(OCCCCCCOC(=O)c1ccccc1)c1ccccc1` [Hexane-1,6-diyl dibenzoate], the “CYP2D6 AC50” value was “Inactive”.
Compound `Cl.Nc1c2c(nc3c1CCC3)CCCC2.O` [Ipidacrine hydrochloride hydrate] has an AC50 of 10.7 µM.
For `CC(C)COC(=O)C=Cc1ccccc1` [Isobutyl 3-phenylacrylate], the “CYP2D6 AC50” value was “Inactive”.

These compounds were tested against CYP3A4 (Homo sapiens, UniProt P08684).
Sequence of CYP3A4 (P08684 whole entry): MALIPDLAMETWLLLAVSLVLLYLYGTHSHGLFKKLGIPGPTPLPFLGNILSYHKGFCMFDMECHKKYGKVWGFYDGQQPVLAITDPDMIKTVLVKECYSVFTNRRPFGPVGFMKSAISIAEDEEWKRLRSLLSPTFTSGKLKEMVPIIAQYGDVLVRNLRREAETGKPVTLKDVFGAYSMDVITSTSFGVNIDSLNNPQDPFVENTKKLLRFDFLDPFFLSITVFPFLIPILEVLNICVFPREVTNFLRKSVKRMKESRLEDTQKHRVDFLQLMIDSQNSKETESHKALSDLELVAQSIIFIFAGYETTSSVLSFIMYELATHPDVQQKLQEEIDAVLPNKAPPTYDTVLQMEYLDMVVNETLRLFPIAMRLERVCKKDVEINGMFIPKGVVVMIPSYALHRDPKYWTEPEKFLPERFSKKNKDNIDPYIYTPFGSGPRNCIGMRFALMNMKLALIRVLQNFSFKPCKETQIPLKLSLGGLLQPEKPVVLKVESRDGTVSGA
`CC(=O)O[C@H]1CC[C@@]2(C)C(=CC[C@@H]3[C@@H]2CC[C@]2(C)C(C(C)=O)=CC[C@@H]32)C1` [Dehydropregnenolone acetate] showed an AC50 of 4.44 µM.
In the case of `COC(=O)CCCCCCCC(=O)OC` [Dimethyl nonanedioate], the AC50 is reported as 58.1 µM.
`O=C(Oc1ccccc1)c1cccc(C(=O)Oc2ccccc2)c1` [Diphenyl isophthalate] was tested, and the AC50 was 20.9 µM.
`CC(=O)O[C@@H]1C[C@H]2[C@@H]3CCc4cc(OC(=O)c5ccccc5)ccc4[C@H]3CC[C@]2(C)[C@H]1OC(C)=O` [Estriol benzoate diacetate] gave an AC50 of 3.74 µM.
`CCC(=O)Oc1ccc2c(c1)CC[C@@H]1[C@@H]2CC[C@@]2(C)[C@H]1C[C@@H](OC(=O)CC)[C@@H]2OC(=O)CC` [Estriol tripropionate] was tested, and the AC50 was 4.92 µM.
`CCOC(=O)C(C#N)=C(c1ccccc1)c1ccccc1` [Ethyl 2-cyano-3,3-diphenylacrylate] gave an AC50 of 7.23 µM.
In the case of `CCOC(=O)c1ccc(O)c(O)c1` [Ethyl protocatechuate], the “CYP3A4 AC50 (half-maximal activity concentration)” value is reported as “Inactive”.
`C[C@]12CC[C@H]3[C@@H](CCC4=CC(=O)CC[C@@]43C)[C@@H]1CC[C@@H]2C(=O)O` [Etienic acid] was tested, and the AC50 was 20.8 µM.
`CN1CCC(Nc2ncc3ncnc(Nc4ccc(F)c(Cl)c4)c3n2)CC1.Cl.Cl` [Falnidamol dihydrochloride] showed an AC50 of 14.4 µM.
`O=C(NCc1ncc(C(F)(F)F)cc1Cl)c1c(Cl)cccc1Cl` [Fluopicolide] showed an AC50 of 12.6 µM.
`C/C=C1/C(=O)C[C@H]2[C@@H]3CCC4=CC(=O)CC[C@]4(C)[C@H]3CC[C@]12C` [Guggulsterone E] gave an AC50 of 1.82 µM.
With `C/C=C1\C(=O)C[C@H]2[C@@H]3CCC4=CC(=O)CC[C@]4(C)[C@H]3CC[C@]12C` [Guggulsterone Z] the AC50 was 3.8 µM.
With `O=C(OCCCCCCOC(=O)c1ccccc1)c1ccccc1` [Hexane-1,6-diyl dibenzoate] the AC50 was 24 µM.
With `Cl.Nc1c2c(nc3c1CCC3)CCCC2.O` [Ipidacrine hydrochloride hydrate] the AC50 was 14.9 µM.
`CC(C)COC(=O)C=Cc1ccccc1` [Isobutyl 3-phenylacrylate] showed an AC50 of 22.8 µM.
